Tests used:
[1] = target: Matrix metalloproteinase-9 (Homo sapiens, UniProt P14780); format: cell-based;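 also: inhibition of isolated MMP-9 enzyme activity toward a synthetic peptide substrate, from the DrugMatrix protease screening panel; in other assays of this panel Not Active means under 50% inhibition at 10 µM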
[2] = target: T1, Alpha-1B adrenergic receptor (Rattus norvegicus, UniProt P15823); assay: DRUGMATRIX: Alpha-1B adrenergic receptor radioligand binding (ligand: prazosin); format: cell membranes, Wistar, Liver, Membrane; details: Not Active = under 50% inhibition at 10 µM
T1 sequence (P15823 whole entry): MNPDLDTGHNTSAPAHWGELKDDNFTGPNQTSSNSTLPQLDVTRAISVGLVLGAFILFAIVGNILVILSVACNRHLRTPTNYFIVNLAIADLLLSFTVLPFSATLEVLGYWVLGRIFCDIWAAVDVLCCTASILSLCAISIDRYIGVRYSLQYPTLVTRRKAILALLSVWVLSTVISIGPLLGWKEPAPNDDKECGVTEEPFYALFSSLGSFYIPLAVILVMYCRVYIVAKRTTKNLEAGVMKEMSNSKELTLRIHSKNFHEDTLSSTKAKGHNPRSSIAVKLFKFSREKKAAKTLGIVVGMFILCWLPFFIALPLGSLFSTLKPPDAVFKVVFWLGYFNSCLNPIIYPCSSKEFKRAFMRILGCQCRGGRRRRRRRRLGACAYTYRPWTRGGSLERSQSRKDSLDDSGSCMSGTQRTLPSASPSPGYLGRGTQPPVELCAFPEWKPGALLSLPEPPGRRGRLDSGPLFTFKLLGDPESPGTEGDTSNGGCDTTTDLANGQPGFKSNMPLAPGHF

[3] = target: T2, 3-hydroxy-3-methylglutaryl-coenzyme A reductase (Homo sapiens, UniProt P04035); design: species or system Escherichia coli;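 also: enzyme inhibition assay of HMG-CoA reductase using radiolabeled [14C]HMG-CoA as substrate; in other assays of this panel Not Active means under 50% inhibition at 10 µM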
T2 sequence (P04035 whole entry): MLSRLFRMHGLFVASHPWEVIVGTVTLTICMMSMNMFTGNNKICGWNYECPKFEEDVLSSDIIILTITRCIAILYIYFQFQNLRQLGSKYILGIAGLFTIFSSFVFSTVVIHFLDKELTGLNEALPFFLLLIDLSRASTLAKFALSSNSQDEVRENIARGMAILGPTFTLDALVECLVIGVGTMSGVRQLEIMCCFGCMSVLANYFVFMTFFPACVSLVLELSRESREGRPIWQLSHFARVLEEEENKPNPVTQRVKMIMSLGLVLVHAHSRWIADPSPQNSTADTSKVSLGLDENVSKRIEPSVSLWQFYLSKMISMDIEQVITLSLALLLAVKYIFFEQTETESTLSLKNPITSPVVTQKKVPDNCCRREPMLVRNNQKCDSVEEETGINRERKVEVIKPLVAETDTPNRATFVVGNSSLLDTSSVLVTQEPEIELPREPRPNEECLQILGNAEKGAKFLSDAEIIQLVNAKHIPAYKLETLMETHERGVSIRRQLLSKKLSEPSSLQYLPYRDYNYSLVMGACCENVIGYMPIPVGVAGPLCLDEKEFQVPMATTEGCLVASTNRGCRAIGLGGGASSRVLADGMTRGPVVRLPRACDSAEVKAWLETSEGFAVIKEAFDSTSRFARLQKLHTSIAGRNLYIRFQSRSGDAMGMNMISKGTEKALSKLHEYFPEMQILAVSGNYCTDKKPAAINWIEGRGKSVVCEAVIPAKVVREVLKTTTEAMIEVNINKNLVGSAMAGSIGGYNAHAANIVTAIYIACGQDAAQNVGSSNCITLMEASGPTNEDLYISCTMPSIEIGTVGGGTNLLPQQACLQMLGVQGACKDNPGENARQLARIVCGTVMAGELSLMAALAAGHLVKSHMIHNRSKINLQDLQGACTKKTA

Cytochrome P450 2C19 = Cytochrome P450 2C19 (Homo sapiens, UniProt P33261); details: bti-tn-5b1-4; also: in other assays of this panel Not Active means under 50% inhibition at 10 µM
Endothelin-1 receptor = target: T3, Endothelin-1 receptor (Homo sapiens, UniProt P25101); format: cell membranes, Membrane; details: cho-k1; also: in other assays of this panel Not Active means under 50% inhibition at 10 µM
T3 sequence (P25101 whole entry): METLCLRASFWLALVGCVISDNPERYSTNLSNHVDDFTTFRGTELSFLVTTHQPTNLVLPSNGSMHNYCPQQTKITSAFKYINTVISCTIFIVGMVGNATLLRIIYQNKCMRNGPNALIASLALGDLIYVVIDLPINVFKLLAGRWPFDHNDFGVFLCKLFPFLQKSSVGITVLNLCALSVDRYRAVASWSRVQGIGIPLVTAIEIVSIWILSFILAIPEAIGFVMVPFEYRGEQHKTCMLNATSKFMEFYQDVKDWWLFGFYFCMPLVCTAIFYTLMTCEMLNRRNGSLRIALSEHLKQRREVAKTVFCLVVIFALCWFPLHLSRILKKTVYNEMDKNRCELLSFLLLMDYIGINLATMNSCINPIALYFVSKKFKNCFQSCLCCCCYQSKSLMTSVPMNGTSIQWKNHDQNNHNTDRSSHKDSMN

[4] = target: T4, Muscarinic acetylcholine receptor M4 (Homo sapiens, UniProt P08173); format: cell membranes, CHO-K1, Membrane; details: cho-k1; also: in other assays of this panel Not Active means under 50% inhibition at 10 µM
T4 sequence (P08173 whole entry): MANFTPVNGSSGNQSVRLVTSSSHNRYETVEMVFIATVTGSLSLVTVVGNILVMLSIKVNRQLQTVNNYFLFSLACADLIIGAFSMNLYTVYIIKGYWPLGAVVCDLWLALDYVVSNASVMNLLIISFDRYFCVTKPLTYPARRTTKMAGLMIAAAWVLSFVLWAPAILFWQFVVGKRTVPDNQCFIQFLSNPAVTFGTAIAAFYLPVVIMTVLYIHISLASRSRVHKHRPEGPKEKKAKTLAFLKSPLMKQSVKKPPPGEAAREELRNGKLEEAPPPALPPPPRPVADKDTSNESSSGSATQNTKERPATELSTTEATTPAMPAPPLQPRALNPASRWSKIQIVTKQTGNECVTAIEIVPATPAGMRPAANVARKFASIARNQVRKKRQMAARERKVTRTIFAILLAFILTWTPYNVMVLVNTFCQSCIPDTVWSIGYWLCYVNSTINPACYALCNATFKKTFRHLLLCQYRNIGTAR

[5] = DRUGMATRIX: Atrial Natriuretic Factor (ANF) radioligand binding (ligand: [125I] ANF (rat)); format: cell membranes, Cavia porcellus, Dunkin-Hartley, Adrenal gland, Membrane; details: Not Active = under 50% inhibition at 10 µM

Sequence of Matrix metalloproteinase-9 (P14780 whole entry): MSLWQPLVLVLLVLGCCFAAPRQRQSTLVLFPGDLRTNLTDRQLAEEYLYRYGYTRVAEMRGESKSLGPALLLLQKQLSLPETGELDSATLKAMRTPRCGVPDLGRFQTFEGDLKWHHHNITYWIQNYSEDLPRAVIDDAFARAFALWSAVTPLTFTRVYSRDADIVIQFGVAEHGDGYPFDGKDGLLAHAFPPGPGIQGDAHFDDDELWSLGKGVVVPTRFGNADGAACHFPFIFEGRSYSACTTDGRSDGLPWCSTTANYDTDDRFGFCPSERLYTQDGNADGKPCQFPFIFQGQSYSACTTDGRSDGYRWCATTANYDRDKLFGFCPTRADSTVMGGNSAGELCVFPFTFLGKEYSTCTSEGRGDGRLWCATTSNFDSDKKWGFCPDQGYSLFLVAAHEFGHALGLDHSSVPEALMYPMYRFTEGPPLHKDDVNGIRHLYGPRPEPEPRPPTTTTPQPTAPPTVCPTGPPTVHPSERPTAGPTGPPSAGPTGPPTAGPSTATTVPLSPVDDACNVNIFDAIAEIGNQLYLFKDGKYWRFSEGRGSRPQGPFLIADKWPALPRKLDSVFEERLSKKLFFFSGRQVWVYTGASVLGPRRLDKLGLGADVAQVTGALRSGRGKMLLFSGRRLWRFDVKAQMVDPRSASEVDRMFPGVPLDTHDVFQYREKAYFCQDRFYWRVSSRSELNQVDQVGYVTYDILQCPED
Sequence of Cytochrome P450 2C19 (P33261 whole entry): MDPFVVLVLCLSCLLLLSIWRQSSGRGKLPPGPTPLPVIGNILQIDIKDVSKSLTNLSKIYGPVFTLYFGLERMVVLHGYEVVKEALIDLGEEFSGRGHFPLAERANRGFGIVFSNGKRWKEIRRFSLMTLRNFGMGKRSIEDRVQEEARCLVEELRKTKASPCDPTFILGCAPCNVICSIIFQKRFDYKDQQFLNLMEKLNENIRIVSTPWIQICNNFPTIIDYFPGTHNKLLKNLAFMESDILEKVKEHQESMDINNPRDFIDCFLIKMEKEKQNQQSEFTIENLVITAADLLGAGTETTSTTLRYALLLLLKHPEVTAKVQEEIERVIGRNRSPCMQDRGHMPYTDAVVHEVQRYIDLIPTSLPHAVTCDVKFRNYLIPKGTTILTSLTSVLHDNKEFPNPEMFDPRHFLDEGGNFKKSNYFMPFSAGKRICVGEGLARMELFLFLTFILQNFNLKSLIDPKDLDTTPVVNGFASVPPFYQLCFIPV

C[N+](C)(C)CCOP(=O)([O-])OC[C@H](O)CO
Not Active: IC50 [1] | IC50 [2] | IC50 [3] | IC50 (Cytochrome P450 2C19) | Ki (Cytochrome P450 2C19) | IC50 (Endothelin-1 receptor) | IC50 [4] | IC50 [5] | Ki [5]

NC(=O)CN1CCCC1=O
Not Active: IC50 [1] | IC50 [2] | IC50 [3] | IC50 (Cytochrome P450 2C19) | Ki (Cytochrome P450 2C19) | IC50 (Endothelin-1 receptor) | IC50 [4] | IC50 [5] | Ki [5]

CN(CCOc1ccc(C[C@H](Nc2ccccc2C(=O)c2ccccc2)C(=O)O)cc1)c1ccccn1
Not Active: IC50 [1] | IC50 [2] | IC50 [3] | IC50 (Cytochrome P450 2C19) | Ki (Cytochrome P450 2C19) | IC50 (Endothelin-1 receptor) | IC50 [4] | IC50 [5] | Ki [5]

C=C(Cl)Cl [1,1-DICHLOROETHENE]
Not Active: IC50 [1] | IC50 [2] | IC50 [3] | IC50 (Cytochrome P450 2C19) | Ki (Cytochrome P450 2C19) | IC50 (Endothelin-1 receptor) | IC50 [4] | IC50 [5] | Ki [5]

CC(=O)Nc1ccc2c(c1)Cc1ccccc1-2 [2-ACETYLAMINOFLUORENE]
Not Active: IC50 [1] | IC50 [2] | IC50 [3] | IC50 (Cytochrome P450 2C19) | Ki (Cytochrome P450 2C19) | IC50 (Endothelin-1 receptor) | IC50 [4] | IC50 [5] | Ki [5]

O=C(Nc1ccc(Cl)c(Cl)c1)c1cc(Cl)cc(Cl)c1O [3,3',4',5-TETRACHLOROSALICYLANILIDE]
Not Active: IC50 [1] | IC50 [2] | IC50 [3] | IC50 (Cytochrome P450 2C19) | Ki (Cytochrome P450 2C19) | IC50 (Endothelin-1 receptor) | IC50 [4] | IC50 [5] | Ki [5]

O=C(O)COC(=O)Cc1ccccc1Nc1c(Cl)cccc1Cl [ACECLOFENAC]
Not Active: IC50 [1] | IC50 [2] | IC50 [3] | IC50 (Cytochrome P450 2C19) | Ki (Cytochrome P450 2C19) | IC50 (Endothelin-1 receptor) | IC50 [4] | IC50 [5] | Ki [5]

CCN1C[C@]2(COC)[C@H](O)C[C@H](OC)[C@@]34[C@@H]5C[C@@]6(O)[C@H](OC(=O)c7ccccc7)[C@@H]5[C@@](OC(C)=O)([C@@H]([C@H](OC)[C@H]23)[C@@H]14)[C@@H](O)[C@@H]6OC [ACONITINE]
Not Active: IC50 [1] | IC50 [2] | IC50 [3] | IC50 (Cytochrome P450 2C19) | Ki (Cytochrome P450 2C19) | IC50 (Endothelin-1 receptor) | IC50 [4] | IC50 [5] | Ki [5]

CCO [ALCOHOL]
Not Active: IC50 [1] | IC50 [2] | IC50 [3] | IC50 (Cytochrome P450 2C19) | Ki (Cytochrome P450 2C19) | IC50 (Endothelin-1 receptor) | IC50 [4] | IC50 [5] | Ki [5]

OC[C@H]1O[C@@H]2O[C@H]3[C@H](O)[C@@H](O)[C@@H](O[C@H]4[C@H](O)[C@@H](O)[C@@H](O[C@H]5[C@H](O)[C@@H](O)[C@@H](O[C@H]6[C@H](O)[C@@H](O)[C@@H](O[C@H]7[C@H](O)[C@@H](O)[C@@H](O[C@H]1[C@H](O)[C@H]2O)O[C@@H]7CO)O[C@@H]6CO)O[C@@H]5CO)O[C@@H]4CO)O[C@@H]3CO [ALFADEX]
Not Active: IC50 [1] | IC50 [2] | IC50 [3] | IC50 (Cytochrome P450 2C19) | Ki (Cytochrome P450 2C19) | IC50 (Endothelin-1 receptor) | IC50 [4] | IC50 [5] | Ki [5]

Oc1ncnc2[nH]ncc12 [ALLOPURINOL]
Not Active: IC50 [1] | IC50 [2] | IC50 [3] | IC50 (Cytochrome P450 2C19) | Ki (Cytochrome P450 2C19) | IC50 (Endothelin-1 receptor) | IC50 [4] | IC50 [5] | Ki [5]

C=CCO [ALLYL ALCOHOL]
Not Active: IC50 [1] | IC50 [2] | IC50 [3] | IC50 (Cytochrome P450 2C19) | Ki (Cytochrome P450 2C19) | IC50 (Endothelin-1 receptor) | IC50 [4] | IC50 [5] | Ki [5]

Nc1nc(N)c2nc(CNc3ccc(C(=O)N[C@@H](CCC(=O)O)C(=O)O)cc3)cnc2n1 [AMINOPTERIN]
Not Active: IC50 [1] | IC50 [2] | IC50 [3] | IC50 (Cytochrome P450 2C19) | Ki (Cytochrome P450 2C19) | IC50 (Endothelin-1 receptor) | IC50 [4] | IC50 [5] | Ki [5]

Nc1ccc(C(=O)O)c(O)c1 [AMINOSALICYLIC ACID]
Not Active: IC50 [1] | IC50 [2] | IC50 [3] | IC50 (Cytochrome P450 2C19) | Ki (Cytochrome P450 2C19) | IC50 (Endothelin-1 receptor) | IC50 [4] | IC50 [5] | Ki [5]

From ChEMBL document CHEMBL1909046, “DrugMatrix in vitro pharmacology data”
